Measured values: the supplement of paper PMC10307832

Columns and labels:
Experiment in all cases: relative viability (nuclei count vs DMSO), 5 days (fraction); higher = more cells survive
Hydroxychloroquine = compound: CCN(CCO)CCCC(C)Nc1ccnc2cc(Cl)ccc12 [Hydroxychloroquine]
In short: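 Viability here means nuclei in treated wells divided by nuclei in vehicle wells, reported as the median across plates. Only plates with control CV below 25% and at least one doubling passed. Lung cancer cell lines in 1536-well plates were exposed to five √10-spaced library-drug doses for 5 days and counted from 4× Hoechst images in MetaXpress.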

[1] = compound: CCN(CCO)CCCC(C)Nc1ccnc2cc(Cl)ccc12 [Hydroxychloroquine] + CC(=O)c1c(C)c2cnc(Nc3ccc(N4CCNCC4)cn3)nc2n(C2CCCC2)c1=O [Palbociclib] (partner 0.5 µM)
In short: (§1)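 One day after seeding in 1536-well plates, lung cancer cell lines were dosed by pin tool. Dosing was either single-drug or a fixed anchor-drug dose plus five library-drug doses (not always all listed) in √10 steps. After 5 days, nuclei were stained in one fix-and-stain step and counted on 4× images, and relative viability is the nuclei count of treated wells over that of vehicle wells, given as the median of duplicate plates.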

[2] = compound: CCN(CCO)CCCC(C)Nc1ccnc2cc(Cl)ccc12 [Hydroxychloroquine] + COc1cc2c(Oc3ccc(NC(=O)C4(C(=O)Nc5ccc(F)cc5)CC4)cc3F)ccnc2cc1OCCCN1CCOCC1 [Foretinib] (partner 0.25 µM)
In short: as §1

[3] = compound: CCN(CCO)CCCC(C)Nc1ccnc2cc(Cl)ccc12 [Hydroxychloroquine] + COc1cccc2cc(-c3nc([C@H]4CC[C@H](C(=O)O)CC4)n4ncnc(N)c34)[nH]c12 [OSI-027] (partner 0.5 µM)
In short: as §1

Row | Cell Line | relative viability (Hydroxychloroquine; 0.5 µM) | relative viability (Hydroxychloroquine; 1.581 µM) | relative viability (Hydroxychloroquine; 5 µM) | relative viability (Hydroxychloroquine; 15.81 µM) | relative viability (Hydroxychloroquine; 50 µM) | relative viability ([1]; first compound 0.5 µM) | relative viability ([1]; first compound 1.581 µM) | relative viability ([1]; first compound 5 µM) | relative viability ([1]; first compound 15.81 µM) | relative viability ([1]; first compound 50 µM) | relative viability ([2]; first compound 0.5 µM) | relative viability ([2]; first compound 1.581 µM) | relative viability ([2]; first compound 5 µM) | relative viability ([2]; first compound 15.81 µM) | relative viability ([2]; first compound 50 µM) | relative viability ([3]; first compound 0.5 µM) | relative viability ([3]; first compound 1.581 µM) | relative viability ([3]; first compound 5 µM) | relative viability ([3]; first compound 15.81 µM) | relative viability ([3]; first compound 50 µM)
1 | NCI-H322M | 0.955 | 0.933 | 0.957 | 0.935 | 0.983 | 0.484 | 0.43 | 0.431 | 0.482 | 0.457 | 1 | 0.937 | 0.934 | 1.03 | 0.935 | 0.557 | 0.535 | 0.634 | 0.519 | 0.609
2 | NCI-H358 | 0.851 | 0.884 | 0.88 | 0.888 | 0.877 | 0.13 | 0.126 | 0.137 | 0.122 | 0.137 | 0.639 | 0.628 | 0.643 | 0.593 | 0.827 | 0.666 | 0.616 | 0.783 | 0.83 | 0.991
3 | NCI-H441 | 1.05 | 0.926 | 1.33 | 1.13 | 1.03 | 0.217 | 0.187 | 0.185 | 0.192 | 0.204 | 0.919 | 1.07 | 1.02 | 1.02 | 0.861 | 0.749 | 0.443 | 0.579 | 0.669 | 0.584
4 | NCI-H460 | 0.973 | 1 | 1.01 | 1.03 | 1.11 | 0.129 | 0.148 | 0.149 | 0.115 | 0.227 | 1.01 | 0.995 | 1.08 | 1.04 | 1.25 | 0.621 | 0.649 | 0.569 | 0.672 | 0.847
5 | NCI-H520 | 1.07 | 1.01 | 0.906 | 0.923 | 1.07 | 0.232 | 0.205 | 0.231 | 0.199 | 0.239 | 0.833 | 0.781 | 0.801 | 0.839 | 0.748 | 0.301 | 0.22 | 0.285 | 0.324 | 0.268
6 | NCI-H647 | 1 | 1.07 | 0.894 | 0.816 | 0.975 | 0.418 | 0.439 | 0.41 | 0.282 | 0.366 | 1.25 | 1.16 | 1.18 | 1.39 | 1.25 | 0.703 | 0.737 | 0.683 | 0.893 | 0.607
7 | NCI-H650 | 1 | 0.896 | 0.741 | 1.04 | 0.955 | 0.341 | 0.288 | 0.3 | 0.35 | 0.311 | 1.04 | 0.888 | 0.983 | 1.03 | 0.97 | 0.566 | 0.557 | 0.61 | 0.555 | 0.545
8 | NCI-H661 | 0.966 | 0.93 | 0.921 | 0.976 | 0.994 | 0.404 | 0.364 | 0.413 | 0.377 | 0.403 | 0.998 | 0.992 | 1.01 | 1 | 1.05 | 0.668 | 0.52 | 0.629 | 0.583 | 0.697
